The conditions of data set [1]: % Viability non-Wnt responsive cells.
For the next data set, the target named is T1, β-catenin (Homo sapiens, UniProt P35222).
T1 sequence (P35222 1-781): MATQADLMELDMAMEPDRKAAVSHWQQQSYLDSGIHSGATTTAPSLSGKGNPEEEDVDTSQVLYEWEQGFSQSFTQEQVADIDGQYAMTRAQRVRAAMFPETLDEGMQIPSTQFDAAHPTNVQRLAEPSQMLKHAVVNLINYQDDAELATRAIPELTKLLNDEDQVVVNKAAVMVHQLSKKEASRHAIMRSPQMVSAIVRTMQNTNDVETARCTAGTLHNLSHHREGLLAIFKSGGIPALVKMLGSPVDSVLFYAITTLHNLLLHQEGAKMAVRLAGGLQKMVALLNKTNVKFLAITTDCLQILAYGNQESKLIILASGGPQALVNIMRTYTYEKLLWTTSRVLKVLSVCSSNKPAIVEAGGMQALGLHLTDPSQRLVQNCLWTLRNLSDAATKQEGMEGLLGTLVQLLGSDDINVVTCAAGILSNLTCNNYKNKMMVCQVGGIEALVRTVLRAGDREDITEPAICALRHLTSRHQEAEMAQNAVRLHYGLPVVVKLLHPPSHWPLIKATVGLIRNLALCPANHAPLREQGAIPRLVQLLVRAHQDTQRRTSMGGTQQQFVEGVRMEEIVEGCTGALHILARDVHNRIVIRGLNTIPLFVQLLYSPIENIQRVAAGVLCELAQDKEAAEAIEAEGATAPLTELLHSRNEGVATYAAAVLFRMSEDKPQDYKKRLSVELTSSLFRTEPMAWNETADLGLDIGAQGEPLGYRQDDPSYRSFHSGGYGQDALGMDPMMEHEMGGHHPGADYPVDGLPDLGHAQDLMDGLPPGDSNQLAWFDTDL
As to the kind of experiment: KD50 measurement using competitive fluorescence polarization (FP) with labelled TCF4. The data set is classed as binding. The conditions noted are these: fluorescence polarization, β-catenin; for Kd: read-out: β-Cat FP KD. The essentials: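 Labelled TCF4 (5 nM) mixed with 100 nM β-catenin at room temperature; inhibitor added as serial dilutions from 10 nM to 30 uM. Polarization read at excitation 470 nm/emission 520 nm; binding displacement lowers polarization. Three independent runs.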
(In general: Fluorescence polarisation rises when a labelled molecule tumbles more slowly, as on binding a larger partner.)

Data set [2] has as its target Wnt-responsive promoter (TCF/LEF). As to the kind of experiment: Wnt-dependent luciferase reporter assay. The data set is classed as cell-based, murine. The essentials: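 Murine 3T3 fibroblasts carrying a TCF/LEF-driven luciferase reporter, stimulated with Wnt3a in the presence of increasing peptide concentrations or vehicle. Luminescence inhibition gave EC50 values in uM.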

The term viability denotes a read-out of living cells in per cent, often relative to untreated cells. A word on the Kd: it is the concentration at which binding is half-saturated. One may read the EC50 as the concentration at which the effect is half-maximal. A higher EC50 goes with a need for much substance.

SMILES strings stand for the structures. Where a SMILES comes first, the peptide text is derived from it.

For the compound `CSCC[C@H](NC(=O)[C@H](CCCNC(=N)N)NC(=O)[C@H](CO)NC(=O)[C@@H](N)CCSC)C(=O)N[C@@H](Cc1c[nH]c2ccccc12)C(=O)N[C@@H](Cc1ccccc1)C(=O)N[C@@H](CC(C)C)C(=O)N[C@H](C(=O)N[C@@H](CO)C(=O)N[C@@H](Cc1ccccc1)C(=O)N[C@@H](Cc1c[nH]c2ccccc12)C(=O)NCC(=O)O)C(C)C` [compound 56] (H-MSRMWFLVSFWG-OH), the viability in data set [1] is 100%. Besides, the Kd on β-catenin was > 30 µM. Also, the EC50 in data set [2] fell in the range of 7.5 to 15 µM.

Consider `CC[C@H](C)[C@H](NC(=O)[C@H](CC(C)C)NC(=O)[C@H](Cc1ccccc1)NC(=O)[C@H](Cc1c[nH]c2ccccc12)NC(=O)[C@H](CCSC)NC(=O)[C@H](CCCNC(=N)N)NC(=O)[C@H](CO)NC(=O)[C@@H](N)CCSC)C(=O)N[C@@H](CO)C(=O)N[C@@H](Cc1ccccc1)C(=O)N[C@@H](Cc1c[nH]c2ccccc12)C(=O)N[C@@H](CCC(=O)O)C(=O)NCC(=O)O` [compound 57] (H-MSRMWFLISFWEG-OH), for which the viability in data set [1] is 104%. Further, on β-catenin, the “β-Cat FP Hill slope” value is reported as 0.7 and the equilibrium dissociation constant (Kd) lay within 1 to 10 µM. In addition, the EC50 in data set [2] was < 7.5 µM.

Turning to `CC[C@H](C)[C@H](NC(=O)[C@H](CC(C)C)NC(=O)[C@H](Cc1ccccc1)NC(=O)[C@H](Cc1c[nH]c2ccccc12)NC(=O)[C@H](CCSC)NC(=O)[C@H](CCCNC(=N)N)NC(=O)[C@H](CO)NC(=O)[C@@H](N)CCSC)C(=O)N[C@@H](CO)C(=O)N[C@@H](Cc1ccccc1)C(=O)N[C@@H](Cc1c[nH]c2ccccc12)C(=O)N[C@@H](CCCNC(=N)N)C(=O)NCC(=O)O` [compound 58] (H-MSRMWFLISFWRG-OH), the viability in data set [1] was 106%. The Kd at β-catenin was > 30 µM. For the same compound, the EC50 in data set [2] lay in the range of 22.5 to 30 µM.

As to `CC[C@H](C)[C@H](NC(=O)[C@H](CC(C)C)NC(=O)[C@H](Cc1ccccc1)NC(=O)[C@H](Cc1c[nH]c2ccccc12)NC(=O)[C@H](CCCCN)NC(=O)[C@H](CCCNC(=N)N)NC(=O)[C@H](CO)NC(=O)[C@@H](N)CCSC)C(=O)N[C@@H](CO)C(=O)N[C@@H](Cc1ccccc1)C(=O)N[C@@H](Cc1c[nH]c2ccccc12)C(=O)NCC(=O)O` [compound 59] (H-MSRKWFLISFWG-OH), the viability in data set [1] is 102%. In addition, the Kd on β-catenin is > 30 µM. For the same compound, the half-maximal effective concentration (EC50) in data set [2] is > 30 µM.

Regarding `CC[C@H](C)[C@H](NC(=O)[C@H](CC(C)C)NC(=O)[C@H](CC(C)C)NC(=O)[C@H](Cc1c[nH]c2ccccc12)NC(=O)[C@H](CCSC)NC(=O)[C@H](CCCNC(=N)N)NC(=O)[C@H](CO)NC(=O)[C@@H](N)CCSC)C(=O)N[C@@H](CO)C(=O)N[C@@H](Cc1ccccc1)C(=O)N[C@@H](Cc1c[nH]c2ccccc12)C(=O)NCC(=O)O` [compound 60] (H-MSRMWLLISFWG-OH), the viability in data set [1] was found to be 101%. Moreover, on β-catenin, the Kd was > 30 µM. The compound further registered a 50% effective concentration (EC50) in data set [2] of 7.5 to 15 µM.

For the compound `CC[C@H](C)[C@H](NC(=O)[C@H](CC(C)C)NC(=O)[C@H](Cc1ccccc1)NC(=O)[C@H](Cc1c[nH]c2ccccc12)NC(=O)[C@H](CCSC)NC(=O)[C@H](CCCNC(=N)N)NC(=O)[C@H](CC(N)=O)NC(=O)[C@@H](N)CCSC)C(=O)N[C@@H](CO)C(=O)N[C@@H](Cc1ccccc1)C(=O)N[C@@H](Cc1c[nH]c2ccccc12)C(=O)NCC(=O)O` [compound 61] (H-MNRMWFLISFWG-OH), the viability in data set [1] was 100%. Also, at β-catenin, the Kd is > 30 µM. The compound also displayed a half-maximal effective concentration (EC50) in data set [2] of 7.5 to 15 µM.

`CSCC[C@H](NC(=O)[C@H](CCCNC(=N)N)NC(=O)[C@H](CO)NC(=O)[C@@H](N)CCSC)C(=O)N[C@@H](Cc1c[nH]c2ccccc12)C(=O)N[C@@H](Cc1ccccc1)C(=O)N[C@@H](CC(C)C)C(=O)N[C@H](C(=O)N[C@@H](CO)C(=O)N[C@@H](Cc1ccccc1)C(=O)N[C@@H](Cc1c[nH]c2ccccc12)C(=O)NCC(=O)O)[C@@H](C)O` [compound 62] (H-MSRMWFLTSFWG-OH): the viability in data set [1] was determined as 104%. Besides, the dissociation constant (Kd) at β-catenin is > 30 µM. Besides, the EC50 in data set [2] is > 30 µM.

The values above are taken from US12441768B2, “Compositions and methods for treating endometriosis” (EndoMet Biosciences, Inc., priority 2018, dated 2025).
